Results from PubChem BioAssay (NCI).
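Five concentrations, 48 hours, 96-well plates. TGI marks complete inhibition of growth.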

The compounds below were run on SNB-19 CNS (assay: growth of human tumour cells (NCI), 48 h).

SMILES	TGI
Cc1c2n(c(=O)[nH]c1=O)C1OC(CO)C(O2)C1N=[N+]=[N-] (stereo not drawn)	> 100 µM
CCOC(=O)c1ncn2c1[nH]c(=S)c1ccccc12	> 100 µM
COc1ccc(-c2cc(=O)c3ccc(O)cc3o2)c(OC)c1OC	> 100 µM
CC(=O)NC1=C(NCC(C)(C)C)C(=O)c2ccccc2C1=O	> 100 µM
COc1cc2c(c(OC)c1O)-c1ccc(SC)c(=O)cc1C(NC(C)=O)CC2 (stereo not drawn)	> 100 µM
O=C(CSC(=S)N1CCCCC1)Nc1nc2c(s1)CCCC2	> 100 µM

Each compound was assayed on IGROV1 ovarian (assay: growth of human tumour cells (NCI), 48 h).

SMILES	TGI
Cc1cc(=O)[nH]c(NNC(C#N)c2cccc(O)c2)n1 (stereo not drawn)	> 100 µM
Cc1c2n(c(=O)[nH]c1=O)C1OC(CO)C(O2)C1N=[N+]=[N-] (stereo not drawn)	> 100 µM
CCOC(=O)c1ncn2c1[nH]c(=S)c1ccccc12	> 100 µM
COc1ccc(-c2cc(=O)c3ccc(O)cc3o2)c(OC)c1OC	> 100 µM
CC(=O)NC1=C(NCC(C)(C)C)C(=O)c2ccccc2C1=O	> 100 µM
COc1cc2c(c(OC)c1O)-c1ccc(SC)c(=O)cc1C(NC(C)=O)CC2 (stereo not drawn)	> 100 µM
O=C(CSC(=S)N1CCCCC1)Nc1nc2c(s1)CCCC2	> 100 µM

These compounds were tested on A498 renal (assay: growth of human tumour cells (NCI), 48 h).

SMILES	TGI
Cc1c2n(c(=O)[nH]c1=O)C1OC(CO)C(O2)C1N=[N+]=[N-] (stereo not drawn)	> 100 µM
CCOC(=O)c1ncn2c1[nH]c(=S)c1ccccc12	> 100 µM
COc1cc2c(c(OC)c1O)-c1ccc(SC)c(=O)cc1C(NC(C)=O)CC2 (stereo not drawn)	30.9 µM
O=C(CSC(=S)N1CCCCC1)Nc1nc2c(s1)CCCC2	> 100 µM

These compounds were tested on OVCAR-5 ovarian (assay: growth of human tumour cells (NCI), 48 h).

SMILES	TGI
Cc1cc(=O)[nH]c(NNC(C#N)c2cccc(O)c2)n1 (stereo not drawn)	> 100 µM
CCOC(=O)c1ncn2c1[nH]c(=S)c1ccccc12	> 100 µM
COc1cc2c(c(OC)c1O)-c1ccc(SC)c(=O)cc1C(NC(C)=O)CC2 (stereo not drawn)	> 100 µM
O=C(CSC(=S)N1CCCCC1)Nc1nc2c(s1)CCCC2	> 100 µM

The compounds below were run on HCC-2998 colon (assay: growth of human tumour cells (NCI), 48 h).

SMILES	TGI
CCOC(=O)c1ncn2c1[nH]c(=S)c1ccccc12	> 100 µM
COc1ccc(-c2cc(=O)c3ccc(O)cc3o2)c(OC)c1OC	> 100 µM
CC(=O)NC1=C(NCC(C)(C)C)C(=O)c2ccccc2C1=O	> 100 µM
COc1cc2c(c(OC)c1O)-c1ccc(SC)c(=O)cc1C(NC(C)=O)CC2 (stereo not drawn)	> 100 µM
O=C(CSC(=S)N1CCCCC1)Nc1nc2c(s1)CCCC2	> 100 µM

These compounds were tested on HL-60(TB) leukemia (assay: growth of human tumour cells (NCI), 48 h).

SMILES	TGI
Cc1cc(=O)[nH]c(NNC(C#N)c2cccc(O)c2)n1 (stereo not drawn)	> 100 µM
Cc1c2n(c(=O)[nH]c1=O)C1OC(CO)C(O2)C1N=[N+]=[N-] (stereo not drawn)	> 100 µM
CCOC(=O)c1ncn2c1[nH]c(=S)c1ccccc12	> 100 µM
COc1ccc(-c2cc(=O)c3ccc(O)cc3o2)c(OC)c1OC	> 100 µM
CC(=O)NC1=C(NCC(C)(C)C)C(=O)c2ccccc2C1=O	> 100 µM
O=C(CSC(=S)N1CCCCC1)Nc1nc2c(s1)CCCC2	33.8 µM

What follows are compounds tested on HT29 colon (assay: growth of human tumour cells (NCI), 48 h).

SMILES	TGI
Cc1cc(=O)[nH]c(NNC(C#N)c2cccc(O)c2)n1 (stereo not drawn)	> 100 µM
Cc1c2n(c(=O)[nH]c1=O)C1OC(CO)C(O2)C1N=[N+]=[N-] (stereo not drawn)	> 100 µM
CCOC(=O)c1ncn2c1[nH]c(=S)c1ccccc12	> 100 µM
COc1ccc(-c2cc(=O)c3ccc(O)cc3o2)c(OC)c1OC	> 100 µM
CC(=O)NC1=C(NCC(C)(C)C)C(=O)c2ccccc2C1=O	> 100 µM
COc1cc2c(c(OC)c1O)-c1ccc(SC)c(=O)cc1C(NC(C)=O)CC2 (stereo not drawn)	> 100 µM
O=C(CSC(=S)N1CCCCC1)Nc1nc2c(s1)CCCC2	> 100 µM

The compounds below were run on KM12 colon (assay: growth of human tumour cells (NCI), 48 h).

SMILES	TGI
Cc1cc(=O)[nH]c(NNC(C#N)c2cccc(O)c2)n1 (stereo not drawn)	> 100 µM
Cc1c2n(c(=O)[nH]c1=O)C1OC(CO)C(O2)C1N=[N+]=[N-] (stereo not drawn)	> 100 µM
CCOC(=O)c1ncn2c1[nH]c(=S)c1ccccc12	> 100 µM
COc1ccc(-c2cc(=O)c3ccc(O)cc3o2)c(OC)c1OC	> 100 µM
CC(=O)NC1=C(NCC(C)(C)C)C(=O)c2ccccc2C1=O	> 100 µM
O=C(CSC(=S)N1CCCCC1)Nc1nc2c(s1)CCCC2	> 100 µM

Each compound was assayed on LXFL 529 NSCLC (assay: growth of human tumour cells (NCI), 48 h).

SMILES	TGI
Cc1cc(=O)[nH]c(NNC(C#N)c2cccc(O)c2)n1 (stereo not drawn)	> 100 µM
Cc1c2n(c(=O)[nH]c1=O)C1OC(CO)C(O2)C1N=[N+]=[N-] (stereo not drawn)	> 100 µM
CCOC(=O)c1ncn2c1[nH]c(=S)c1ccccc12	> 100 µM
COc1ccc(-c2cc(=O)c3ccc(O)cc3o2)c(OC)c1OC	> 100 µM
CC(=O)NC1=C(NCC(C)(C)C)C(=O)c2ccccc2C1=O	> 100 µM
COc1cc2c(c(OC)c1O)-c1ccc(SC)c(=O)cc1C(NC(C)=O)CC2 (stereo not drawn)	> 100 µM
O=C(CSC(=S)N1CCCCC1)Nc1nc2c(s1)CCCC2	> 100 µM

These compounds were tested on CAKI-1 renal (assay: growth of human tumour cells (NCI), 48 h).

SMILES	TGI
Cc1cc(=O)[nH]c(NNC(C#N)c2cccc(O)c2)n1 (stereo not drawn)	> 100 µM
Cc1c2n(c(=O)[nH]c1=O)C1OC(CO)C(O2)C1N=[N+]=[N-] (stereo not drawn)	> 100 µM
CCOC(=O)c1ncn2c1[nH]c(=S)c1ccccc12	> 100 µM
COc1ccc(-c2cc(=O)c3ccc(O)cc3o2)c(OC)c1OC	> 100 µM
COc1cc2c(c(OC)c1O)-c1ccc(SC)c(=O)cc1C(NC(C)=O)CC2 (stereo not drawn)	> 100 µM

Each compound was assayed on SNB-75 CNS (assay: growth of human tumour cells (NCI), 48 h).

SMILES	TGI
Cc1cc(=O)[nH]c(NNC(C#N)c2cccc(O)c2)n1 (stereo not drawn)	> 100 µM
Cc1c2n(c(=O)[nH]c1=O)C1OC(CO)C(O2)C1N=[N+]=[N-] (stereo not drawn)	> 100 µM
CCOC(=O)c1ncn2c1[nH]c(=S)c1ccccc12	> 100 µM
COc1ccc(-c2cc(=O)c3ccc(O)cc3o2)c(OC)c1OC	71.4 µM
CC(=O)NC1=C(NCC(C)(C)C)C(=O)c2ccccc2C1=O	> 100 µM
O=C(CSC(=S)N1CCCCC1)Nc1nc2c(s1)CCCC2	> 100 µM

These compounds were tested on ACHN renal (assay: growth of human tumour cells (NCI), 48 h).

SMILES	TGI
Cc1cc(=O)[nH]c(NNC(C#N)c2cccc(O)c2)n1 (stereo not drawn)	> 100 µM
Cc1c2n(c(=O)[nH]c1=O)C1OC(CO)C(O2)C1N=[N+]=[N-] (stereo not drawn)	> 100 µM
CCOC(=O)c1ncn2c1[nH]c(=S)c1ccccc12	> 100 µM
COc1ccc(-c2cc(=O)c3ccc(O)cc3o2)c(OC)c1OC	> 100 µM
CC(=O)NC1=C(NCC(C)(C)C)C(=O)c2ccccc2C1=O	74.5 µM
COc1cc2c(c(OC)c1O)-c1ccc(SC)c(=O)cc1C(NC(C)=O)CC2 (stereo not drawn)	> 100 µM
O=C(CSC(=S)N1CCCCC1)Nc1nc2c(s1)CCCC2	> 100 µM

What follows are compounds tested on A549 NSCLC (assay: growth of human tumour cells (NCI), 48 h).

SMILES	TGI
Cc1cc(=O)[nH]c(NNC(C#N)c2cccc(O)c2)n1 (stereo not drawn)	> 100 µM
Cc1c2n(c(=O)[nH]c1=O)C1OC(CO)C(O2)C1N=[N+]=[N-] (stereo not drawn)	> 100 µM
CCOC(=O)c1ncn2c1[nH]c(=S)c1ccccc12	> 100 µM
COc1ccc(-c2cc(=O)c3ccc(O)cc3o2)c(OC)c1OC	> 100 µM
CC(=O)NC1=C(NCC(C)(C)C)C(=O)c2ccccc2C1=O	> 100 µM
COc1cc2c(c(OC)c1O)-c1ccc(SC)c(=O)cc1C(NC(C)=O)CC2 (stereo not drawn)	> 100 µM
O=C(CSC(=S)N1CCCCC1)Nc1nc2c(s1)CCCC2	> 100 µM

What follows are compounds tested on SW-620 colon (assay: growth of human tumour cells (NCI), 48 h).

SMILES	TGI
Cc1cc(=O)[nH]c(NNC(C#N)c2cccc(O)c2)n1 (stereo not drawn)	> 100 µM
Cc1c2n(c(=O)[nH]c1=O)C1OC(CO)C(O2)C1N=[N+]=[N-] (stereo not drawn)	> 100 µM
CCOC(=O)c1ncn2c1[nH]c(=S)c1ccccc12	62 µM
COc1ccc(-c2cc(=O)c3ccc(O)cc3o2)c(OC)c1OC	> 100 µM
CC(=O)NC1=C(NCC(C)(C)C)C(=O)c2ccccc2C1=O	> 100 µM
COc1cc2c(c(OC)c1O)-c1ccc(SC)c(=O)cc1C(NC(C)=O)CC2 (stereo not drawn)	> 100 µM
O=C(CSC(=S)N1CCCCC1)Nc1nc2c(s1)CCCC2	> 100 µM

These compounds were tested on 786-0 renal (assay: growth of human tumour cells (NCI), 48 h).

SMILES	TGI
Cc1cc(=O)[nH]c(NNC(C#N)c2cccc(O)c2)n1 (stereo not drawn)	> 100 µM
Cc1c2n(c(=O)[nH]c1=O)C1OC(CO)C(O2)C1N=[N+]=[N-] (stereo not drawn)	> 100 µM
CCOC(=O)c1ncn2c1[nH]c(=S)c1ccccc12	> 100 µM
COc1ccc(-c2cc(=O)c3ccc(O)cc3o2)c(OC)c1OC	> 100 µM
CC(=O)NC1=C(NCC(C)(C)C)C(=O)c2ccccc2C1=O	> 100 µM
COc1cc2c(c(OC)c1O)-c1ccc(SC)c(=O)cc1C(NC(C)=O)CC2 (stereo not drawn)	> 100 µM
O=C(CSC(=S)N1CCCCC1)Nc1nc2c(s1)CCCC2	> 100 µM

Each compound was assayed on SK-MEL-2 melanoma (assay: growth of human tumour cells (NCI), 48 h).

SMILES	TGI
Cc1cc(=O)[nH]c(NNC(C#N)c2cccc(O)c2)n1 (stereo not drawn)	> 100 µM
Cc1c2n(c(=O)[nH]c1=O)C1OC(CO)C(O2)C1N=[N+]=[N-] (stereo not drawn)	> 100 µM
CCOC(=O)c1ncn2c1[nH]c(=S)c1ccccc12	> 100 µM
COc1ccc(-c2cc(=O)c3ccc(O)cc3o2)c(OC)c1OC	> 100 µM
CC(=O)NC1=C(NCC(C)(C)C)C(=O)c2ccccc2C1=O	> 100 µM
COc1cc2c(c(OC)c1O)-c1ccc(SC)c(=O)cc1C(NC(C)=O)CC2 (stereo not drawn)	> 5.54 µM
O=C(CSC(=S)N1CCCCC1)Nc1nc2c(s1)CCCC2	> 100 µM
